The text below walks through data of publication PMC12691742, “Anti-Cancer Outcome of Glucocorticoid Receptor Transrepression by Synephrine Derivatives in Hematological Malignancies” (International Journal of Molecular Sciences, 2025).

A word on the IC50: it is the midpoint of a concentration-inhibition curve.

The subject of series [1] is GR phosphorylated by Ser211 in K562 and Granta cells. The series can be described thus: Western blot of nuclear phospho-GR (Ser211). Type of series: cell-based. Conditions: 10 h; Dex 10 µM, 4S-C2 50 µM, 8S-E3 50 µM, 10S-E2 15 µM, 13S-G2 25 µM. The method, then:
Figure 3 Effects of synephrine derivatives on GR transactivation in Granta lymphoma and K562 leukemia cells. (A) Q-PCR analysis of FKBP51, GILZ, and DDIT4 mRNA expression in K562 and Granta cells. […] The Q-PCR results were normalized to the expression of the housekeeping gene RPL27 and are presented as fold changes compared to the control. The mean ± SD was calculated for three individual samples/condition (n = 3). Statistically significant differences compared to the control: * p < 0.05, ** p < 0.01. (B) The levels of the nuclear fraction of phospho-GR (Ser211) were determined using Western blot analysis (n = 3; characteristic images are presented in the figure). Histone H3 was used as a loading control.
Western blot analysis was performed as previously described. Proteins were resolved using SDS-PAGE. Membranes were blocked with 5% nonfat milk solution and then incubated with primary antibodies against phosphorylated GR (pGR, Ser211) (“Santa Cruz Biotechnology”, Santa Cruz, CA, USA) overnight at 4 °C. To verify equal protein loading and adequate transfer, the membranes were probed with Histone H3 antibodies (“Cell Signaling”, Boston, MA, USA). Goat anti-rabbit IgGs (“Jackson Immuno Research”, West Grove, PA, USA) were used as secondary antibodies. Signals were detected using ECL reagent and an ImageQuant LAS4000 system (“GE HealthCare”, Chicago, IL, USA). ImageJ 1.54h software was used for densitometry. The experiments were performed in triplicate.
7 K562, pGR nuclear 5 Granta, pGR nuclear
Supplementary Figure S 22. Quantification of Western blot analysis. K562 and Granta cells […]
μM) and 13S-G2 (25 μ M) for 10 h. Quantification of Western blot anal ysis of p- GR protein levels was done usin g Im a ge J f ree so ftwar e. Statisticall y significant diff eren ces as compared to control: […]
(In western blotting, separated proteins are transferred to a membrane and probed.)

The test system of series [2] is leukemia and lymphoma cells (Granta, K562). On the set-up: method as in PMID 39858397. To be noted: cited from earlier work.
Series [3] deals with NF-kB activity in K562 cells. The series can be described thus: NF-kB.Luc reporter assay in K562 cells. Type of series: cell-based. Conditions: 5 h, 10S-E2 1 µM. The protocol:
We analyzed GR TR function using an NF-kB.Luc reporter assay with the irritating inflammatory agent phorbol 13-acetate 12-myristate (TPA) as an inducer of NF-kB signaling and positive control.
Figure 4 Effects of synephrine derivatives on GR transrepression in Granta lymphoma and K562 leukemia cells. (A) K562 and Granta cells stably infected with the lentiviruses bearing the NF-kB luciferase reporter. Cells were incubated for 5 h with the solvent (control), TPA (5 ng/mL), 4S-C2 (10 µM), 8S-E3 (10 µM), 10S-E2 (1 µM), or 13S-G2 (1 µM). Luciferase activity was determined as described in the Materials and Methods section. (B) IL1-α and IL6 mRNA expression in K562 and Granta cells. […] The mean ± SD was calculated for three individual samples/condition (n = 3). […]
Lentiviral stocks were generated using the lentiviral expression vector NF-kB. […] The infection efficiency exceeded 90% (tracked by GFP fluorescence).
Cells (10^4 cells/well in a 24-well plate), stably expressing Firefly Luciferase under the NF-kB promoter, were treated for 5 h with TPA (12-O-tetradecanoylphorbol-13-acetate, Boston, MA, USA, 10 ng/mL), 4S-C2 (10 µM), 8S-E3 (10 µM), 10S-E2 (1 µM), 13S-G2 (1 µM), or the vehicle. Luciferase activity was measured as described using a commercial Luciferase Assay (“Promega”, Madison, WI, USA) and Luminometer TD 20/20 (“Turner Design Instruments”, San Jose, CA, USA). […]
In general terms: Reporter assays use an easily measured gene product as a stand-in for the process of interest.

The next series has as its system K562 cells. The series can be described thus: Cell cycle analysis by PI flow cytometry in K562 cells. Conditions: 24 h, 10S-E2 6.25 µM. Type of series: cell-based. The method, then: Figure 5 Pro-apoptotic and anti-cancer effects of synephrine derivatives in vitro and in vivo. (A) Effect of 4S-C2, 8S-E3, 10S-E2, and 13S-G2 on cell cycle progression in K562 and Granta cells after 24 h of incubation. The cells were fixed with ethanol, stained with propidium iodide, and analyzed using flow cytometry. Statistically significant difference compared to control: *—p < 0.05, **—p < 0.01 (n = 3). (B) In vivo anti-cancer activity was evaluated using the transplantable P388 murine lymphoma model. […] Tumor nodule size was measured twice a week using digital calipers. Statistically significant differences compared to the control: * p < 0.05, ** p < 0.01.
The distribution of cells by cell cycle phases was evaluated using propidium iodide (PI) staining, as described in [19]. […] After incubation, the cells were resuspended in 70% ethanol and fixed for 2h at 4 °C. Cells were then washed twice with cold PBS, pH 7.4, and stained with 500 µL of cold propidium iodide (PI) solution (50 µg/mL PI, 1% Triton X-100, and 100 µg/mL RNase A in PBS). The cell cycle distribution of cells in samples was analyzed using an FACSCalibur Flow Cytometer (“BD Biosciences”, San Jose, CA, USA). The experiments were performed in triplicate.

For the molecule `CCCCCCNCC(O)c1ccc(OCc2ccccc2)cc1` (stereo not drawn) [10S-E2, 1-[4-(benzyloxy)phenyl]-2-(hexylamino)ethanol], the “GR phosphorylation level at Ser211” value in series [1] is given as “did not affect the phosphorylation”. For the same molecule, the IC50 in series [2] (leukemia and lymphoma cells, read-out: cell viability IC50) was 13 to 26 µM. For the same molecule, the “concentrations of cytotoxic effects” value in series [2] (mantle cell lymphoma Granta and chronic myeloleukemia K562 cells) was 10 to 20 µM. For the same molecule, in series [3], the “inhibition of luciferase activity (NF-kB)” value is listed as 60%. Further, in the series with K562 cells, the induction of apoptosis entry is on record as “did not induce apoptosis”, the “number of cells in the G1 phase” value is on record as “decrease in the number of cells in the G1 phase” and the “number of replicating cells in the S phase” value was “increased the number of replicating cells in the S phase”.
